# Measured values taken from patent US20260184663A1, “INDENE COMPOUNDS, PHARMACEUTICAL COMPOSITIONS THEREOF, AND THEIR THERAPEUTIC APPLICATIONS” (NucMito Pharmaceuticals co. Ltd., priority 2022, published 2026).
# How the values were obtained:
# Assay type in all cases: cell-based
# [1] = tested on: MDA-MB-231 (breast cancer); test: Antiproliferative activity (CCK-8 cell viability), MDA-MB-231; conditions: Homo sapiens, 72 h, read-out: Antiproliferative activity in cancerous cells, MDA-MB-231 (inhibition of cell growth); for inhibition at 3.3 µM: Compound concentration: 3.3 μM; for inhibition at 10 µM: Compound concentration: 10 μM; for inhibition at 30 µM: Compound concentration: 30 μM
# Outline: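 MDA-MB-231 breast cancer cells, grown in DMEM with 10% FBS, were plated in 96-well plates at 2,000-5,000 cells/well. Once attached, they were exposed to compound and incubated at 37° C. for 72 h. Viability was then measured with CCK-8 (10 μL per well, 4 h at 37° C.) by absorbance at 450 nm, relative to DMSO vehicle wells.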
# HepG2 (liver cancer) = test: Antiproliferative activity (CCK-8 cell viability), HepG2; conditions: Homo sapiens, 72 h, read-out: Antiproliferative activity in cancerous cells, HepG2 (inhibition of cell growth); for inhibition at 3.3 µM: Compound concentration: 3.3 μM; for inhibition at 10 µM: Compound concentration: 10 μM; for inhibition at 30 µM: Compound concentration: 30 μM
# Outline: (§1)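 Cells grown in DMEM (HepG2, SW480), MEM (HeLa) or F-12K (A549), each with 10% FBS, then exposed to compound at 3.3, 10 or 30 μM for 72 h at 37 °C. CCK-8 absorbance at 450 nm; viability expressed as percent of DMSO-treated cells, graded as growth inhibition bands.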
# SW480 (colon cancer) = test: Antiproliferative activity (CCK-8 cell viability), SW480; conditions: Homo sapiens, 72 h, read-out: Antiproliferative activity in cancerous cells, SW480 (inhibition of cell growth); for inhibition at 3.3 µM: Compound concentration: 3.3 μM; for inhibition at 10 µM: Compound concentration: 10 μM; for inhibition at 30 µM: Compound concentration: 30 μM
# Outline: as §1
# [2] = tested on: B16F10 (malignant melanoma); test: Antiproliferative activity (CCK-8 cell viability), B16F10; conditions: Mus musculus, 72 h, read-out: Antiproliferative activity in cancerous cells, B16F10 (inhibition of cell growth); for inhibition at 3.3 µM: B16-F10, Compound concentration: 3.3 μM; for inhibition at 10 µM: B16-F10, Compound concentration: 10 μM; for inhibition at 30 µM: B16-F10, Compound concentration: 30 μM
# Outline: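 B16F10 melanoma cells grown in DMEM with 10% FBS were plated in 96-well plates at 2,000-5,000 cells/well. After attachment they were exposed to compound in medium for 72 h at 37° C. CCK-8 solution (10 μL) was then added, and after 4 h at 37° C absorbance was read at 450 nm.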
# [3] = tested on: A431 (epidermoid carcinoma); test: Antiproliferative activity (CCK-8 cell viability), A431; conditions: Homo sapiens, 72 h, read-out: Antiproliferative activity in cancerous cells, A431 (inhibition of cell growth); for inhibition at 3.3 µM: A-431, Compound concentration: 3.3 μM; for inhibition at 10 µM: A-431, Compound concentration: 10 μM; for inhibition at 30 µM: A-431, Compound concentration: 30 μM
# Outline: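 A431 epidermoid carcinoma cells grown in DMEM with 10% FBS were plated at 2,000-5,000 cells/well in 96-well plates. After attachment they were exposed to compound at 3.3 μM, 10 μM, or 30 μM for 72 h at 37° C. Viability was then assessed by CCK-8 against DMSO vehicle-treated wells.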
# [4] = tested on: A549 (lung adenocarcinoma); test: Antiproliferative activity (CCK-8 cell viability), A549; conditions: Homo sapiens, 72 h, read-out: Antiproliferative activity in cancerous cells, A549 (inhibition of cell growth); for inhibition at 3.3 µM: Compound concentration: 3.3 μM; for inhibition at 10 µM: Compound concentration: 10 μM; for inhibition at 30 µM: Compound concentration: 30 μM
# Outline: as §1
# HeLa (cervical cancer) = test: Antiproliferative activity (CCK-8 cell viability), HeLa; conditions: Homo sapiens, 72 h, read-out: Antiproliferative activity in cancerous cells, HELA (inhibition of cell growth); for inhibition at 3.3 µM: Compound concentration: 3.3 μM; for inhibition at 10 µM: Compound concentration: 10 μM; for inhibition at 30 µM: Compound concentration: 30 μM
# Outline: as §1
SMILES,inhibition at 3.3 µM [1] [%],inhibition at 10 µM [1] [%],inhibition at 30 µM [1] [%],inhibition at 3.3 µM (HepG2 (liver cancer)) [%],inhibition at 10 µM (HepG2 (liver cancer)) [%],inhibition at 30 µM (HepG2 (liver cancer)) [%],inhibition at 3.3 µM (SW480 (colon cancer)) [%],inhibition at 10 µM (SW480 (colon cancer)) [%],inhibition at 30 µM (SW480 (colon cancer)) [%],inhibition at 3.3 µM [2] [%],inhibition at 10 µM [2] [%],inhibition at 30 µM [2] [%],inhibition at 3.3 µM [3] [%],inhibition at 10 µM [3] [%],inhibition at 30 µM [3] [%],inhibition at 3.3 µM [4] [%],inhibition at 10 µM [4] [%],inhibition at 30 µM [4] [%],inhibition at 3.3 µM (HeLa (cervical cancer)) [%],inhibition at 10 µM (HeLa (cervical cancer)) [%],further results
"CC1=C(CC(=O)O)c2cc(F)ccc2/C1=C\c1ccc(-c2ccc(Cl)cc2)cc1 [D13, (Z)-2-(1-((4′-Chloro-[1,1′-biphenyl]-4-yl)methylene)-5-fluoro-2-methyl-1H-inden-3-yl)acetic acid]",< 30,30 to 50,≥ 50,< 30,< 30,< 30,30 to 50,30 to 50,30 to 50,≥ 50,≥ 50,≥ 50,< 30,30 to 50,30 to 50,< 30,< 30,30 to 50,< 30,≥ 50,inhibition at 30 µM (HeLa (cervical cancer)): ≥ 50%
"COc1ccc(S(=O)(=O)Cc2ccc(/C=C3/C(C)=C(CC(=O)O)c4cc(F)ccc43)cc2)cc1 [B46, (Z)-2-(5-Fluoro-1-(4-(((4-methoxyphenyl)sulfonyl)methyl)benzylidene)-2-methyl-1H-inden-3-yl)acetic acid]",< 30,30 to 50,,30 to 50,30 to 50,,30 to 50,30 to 50,,< 30,≥ 50,,30 to 50,≥ 50,,< 30,< 30,,< 30,≥ 50,
"CC1=C(CC(=O)O)c2cccc(F)c2/C1=C/c1cccc(COc2ccccc2)c1 [E8, (E)-2-(7-Fluoro-2-methyl-1-(3-(phenoxymethyl)benzylidene)-1H-inden-3-yl)-acetic acid]",≥ 50,≥ 50,≥ 50,30 to 50,≥ 50,≥ 50,30 to 50,≥ 50,≥ 50,< 30,30 to 50,≥ 50,≥ 50,≥ 50,≥ 50,< 30,≥ 50,≥ 50,30 to 50,≥ 50,inhibition at 30 µM (HeLa (cervical cancer)): ≥ 50%
"CCc1ccc2c(c1)C(CC(=O)O)=C(C)/C2=C/c1ccc(COc2ccc(C(F)(F)F)cc2)cc1 [B60, (Z)-2-(5-Ethyl-2-methyl-1-(4-((4-(trifluoromethyl)phenoxy)methyl)benzylidene)-1H-inden-3-yl)acetic acid]",< 30,< 30,,≥ 50,≥ 50,,< 30,≥ 50,,30 to 50,≥ 50,,≥ 50,≥ 50,,30 to 50,≥ 50,,30 to 50,≥ 50,
"CC(=O)CC(=O)N1CCC(Oc2ccc(/C=C3/C(C)=C(CC(=O)O)c4cc(F)ccc43)cc2)CC1 [C203, (Z)-2-(5-Fluoro-2-methyl-1-(4-((1-(3-oxobutanoyl)piperidin-4-yl)oxy)-benzylidene)-1H-inden-3-yl)acetic acid]",< 30,< 30,< 30,< 30,< 30,< 30,< 30,< 30,< 30,< 30,≥ 50,≥ 50,≥ 50,≥ 50,≥ 50,30 to 50,< 30,< 30,< 30,< 30,inhibition at 30 µM (HeLa (cervical cancer)): < 30%
"CC1=C(CC(=O)O)c2cc(F)c(F)cc2/C1=C/c1ccc(Oc2ccc(F)cc2)cc1 [E23, (E)-2-(5,6-Difluoro-1-(4-(4-fluorophenoxy)benzylidene)-2-methyl-1H-inden-3-yl)acetic acid]",≥ 50,≥ 50,≥ 50,< 30,< 30,≥ 50,< 30,≥ 50,≥ 50,< 30,≥ 50,≥ 50,30 to 50,≥ 50,≥ 50,< 30,< 30,≥ 50,30 to 50,≥ 50,inhibition at 30 µM (HeLa (cervical cancer)): ≥ 50%
"CC1=C(CC(=O)O)c2cc(F)ccc2/C1=C\c1cccc(C(=O)Nc2ccc(F)cc2)c1 [B69, (Z)-2-(5-Fluoro-1-(3-((4-fluorophenyl)carbamoyl)benzylidene)-2-methyl-1H-inden-3-yl)acetic acid]",30 to 50,≥ 50,,30 to 50,≥ 50,,30 to 50,≥ 50,,≥ 50,≥ 50,,< 30,≥ 50,,< 30,≥ 50,,≥ 50,≥ 50,
"CC1=C(CC(=O)O)c2ccc(Cl)cc2/C1=C\c1ccc(Oc2ccc(F)cc2)cc1 [C67, (Z)-2-(6-Chloro-1-(4-(4-fluorophenoxy)benzylidene)-2-methyl-1H-inden-3-yl)acetic acid]",< 30,≥ 50,,30 to 50,≥ 50,,30 to 50,30 to 50,,< 30,< 30,,30 to 50,≥ 50,,< 30,≥ 50,,< 30,< 30,
